Experimental data reported in US20240245673A1, “Papain-like protease (PLpro) inhibitors” (Pfizer Inc., priority 2022, published 2024).

Molecular target: SARS-CoV-2 Papain like protease (PLpro) (Severe acute respiratory syndrome coronavirus 2 (2019-nCoV) (SARS-CoV-2), UniProt P0DTD1)
Test: Papain Like Protease (PLpro) biochemical assay with profluorogenic substrate Z-RLRGG-AMC
Details: SARS-CoV-2 PLpro 6.25 nM, 25 μM Z-RLRGG-AMC substrate, 60 minute reaction; read-out: IC50

Cc1ccc(NC(=O)[C@H]2CCCCN2)cc1C(=O)N[C@H](C)c1cc(-c2ccn[nH]2)cc2ccccc12 (single isomer, unassigned) [Example 69]
IC50: 908 nM

Cc1ccc(N2C[C@H]3C[C@@H]2CN3C)cc1C(=O)N[C@H](C)c1cc(-c2cnn(C)c2)nc2ccccc12 (single isomer, unassigned) [Example 280, 2-methyl-N—((R)-1-(2-(1-methyl-1H-pyrazol-4-yl)quinolin-4-yl)ethyl)-5-((1R*,4R*)-5-methyl-2,5-diazabicyclo[2.2.1]heptan-2-yl)benzamide]
IC50: 17 nM

Cc1ccc(N2C[C@H]3C[C@@H]2CN3C)cc1C(=O)N[C@H](C)c1cc(-c2cnn(C)c2)nc2ccccc12 (single isomer, unassigned) [Example 281, 2-methyl-N—((R)-1-(2-(1-methyl-1H-pyrazol-4-yl)quinolin-4-yl)ethyl)-5-((1R*,4R*)-5-methyl-2,5-diazabicyclo[2.2.1]heptan-2-yl)benzamide]
IC50: 3 nM

COCC(OCc1cscn1)c1ccc(C(=O)NC2(c3cc(-c4cnn(C)c4)nc4ccccc34)CC2)c(C)c1 (single isomer, unassigned) [Example 324]
IC50: < 1 nM

COCC(OCc1cscn1)c1ccc(C(=O)NC2(c3cc(-c4cnn(C)c4)nc4ccccc34)CC2)c(C)c1 (single isomer, unassigned) [Example 325]
IC50: 1 nM

COC[C@@H](OCc1cscn1)c1ccc(C(=O)N[C@H](C)c2cc(-c3cnn(C)c3)nc3ccccc23)c(C)c1 (single isomer, unassigned) [Example 332, 4-((R*)-2-methoxy-1-(thiazol-4-ylmethoxy)ethyl)-2-methyl-N-((R)-1-(2-(1-methyl-1H-pyrazol-4-yl)quinolin-4-yl)ethyl)benzamide]
IC50: 2 nM

COC[C@H](OCc1cscn1)c1ccc(C(=O)N[C@H](C)c2cc(-c3cnn(C)c3)nc3ccccc23)c(C)c1 (single isomer, unassigned) [Example 333, 4-((R*)-2-methoxy-1-(thiazol-4-ylmethoxy)ethyl)-2-methyl-N-((R)-1-(2-(1-methyl-1H-pyrazol-4-yl)quinolin-4-yl)ethyl)benzamide]
IC50: < 1 nM

COC[C@@H](OCc1cscn1)c1ccc(C(=O)NC2(c3cc(-c4cnn(C)c4)cc4ncccc34)CC2)c(C)c1 (single isomer, unassigned) [Example 334]
IC50: < 1 nM

COC[C@H](OCc1cscn1)c1ccc(C(=O)NC2(c3cc(-c4cnn(C)c4)cc4ncccc34)CC2)c(C)c1 (single isomer, unassigned) [Example 335]
IC50: < 1 nM

COC[C@@H](OCc1cscn1)c1ccc(C(=O)NC2(c3cc(-c4cc(C(=O)N(C)C)n[nH]4)nc4ccccc34)CC2)c(C)c1 (single isomer, unassigned) [Example 336]
IC50: < 1 nM

COC[C@H](OCc1cscn1)c1ccc(C(=O)NC2(c3cc(-c4cc(C(=O)N(C)C)n[nH]4)nc4ccccc34)CC2)c(C)c1 (single isomer, unassigned) [Example 337]
IC50: < 1 nM

COC[C@H](OCc1cocn1)c1ccc(C(=O)NC2(c3cc(-c4cnn(C)c4)nc4ccccc34)CC2)c(C)c1 (single isomer, unassigned) [Example 338]
IC50: 3 nM

COC[C@@H](OCc1cocn1)c1ccc(C(=O)NC2(c3cc(-c4cnn(C)c4)nc4ccccc34)CC2)c(C)c1 (single isomer, unassigned) [Example 339]
IC50: < 1 nM

COC[C@H](OCc1cocn1)c1ccc(C(=O)NC2(c3cc(-c4cnn(C)c4)cc4ncccc34)CC2)c(C)c1 (single isomer, unassigned) [Example 340]
IC50: 2 nM

COC[C@@H](OCc1cocn1)c1ccc(C(=O)NC2(c3cc(-c4cnn(C)c4)cc4ncccc34)CC2)c(C)c1 (single isomer, unassigned) [Example 355]
IC50: < 1 nM

COC[C@H](OCc1cocn1)c1ccc(C(=O)NC2(c3cc(-c4cnn(C)c4)cc4ncccc34)CC2)c(C)c1 (single isomer, unassigned) [Example 356]
IC50: 2 nM

COC[C@H](OCc1cocn1)c1ccc(C(=O)NC2(c3cc(-c4cc(C(=O)N(C)C)n[nH]4)cc4ncccc34)CC2)c(C)c1 (single isomer, unassigned) [Example 359]
IC50: < 1 nM

COC[C@@H](OCc1cocn1)c1ccc(C(=O)NC2(c3cc(-c4cc(C(=O)N(C)C)n[nH]4)cc4ncccc34)CC2)c(C)c1 (single isomer, unassigned) [Example 360]
IC50: 1 nM

COC[C@H](OCc1cscn1)c1ccc(C(=O)NC2(c3cc(-c4cc(C(=O)N(C)C)n[nH]4)cc4ncccc34)CC2)c(C)c1 (single isomer, unassigned) [Example 361]
IC50: < 1 nM

COC[C@@H](OCc1cocn1)c1ccc(C(=O)NC2(c3cc(-c4cnn(C)c4)cc4nc(C)ccc34)CC2)c(C)c1 (single isomer, unassigned) [Example 365]
IC50: < 1 nM

Cc1ccccc1C(=O)NC(C)c1cc(CC2CCOCC2)nc2ccccc12 (stereo in doubt) [Example 152, 2-methyl-N-[(1R)-1-{2-[(oxan-4-yl)methyl]quinolin-4-yl}ethyl]benzamide]
IC50: 623 nM

CCCc1cc(C(C)NC(=O)c2ccccc2C)c2ccccc2n1 (stereo in doubt) [Example 153, 2-methyl-N-[(1R)-1-(2-propylquinolin-4-yl)ethyl]benzamide]
IC50: 311 nM

Cc1ccccc1C(=O)NC(C)c1cc(C2CC(F)(F)C2)nc2ccccc12 (stereo in doubt) [Example 154, N-{(1R)-1-[2-(3,3-difluorocyclobutyl)quinolin-4-yllethyl}-2-methylbenzamide]
IC50: 988 nM

Cc1ccccc1C(=O)NC(C)c1cc(C2CCOCC2)nc2ccccc12 (stereo in doubt) [Example 155, 2-methyl-N-{(1R)-1-[2-(oxan-4-yl)quinolin-4-yl]ethyl}benzamide]
IC50: 581 nM

Cc1ccccc1C(=O)NC(C)c1cc(CN2CCCC2=O)nc2ccccc12 (stereo in doubt) [Example 156, 2-methyl-N-[(1R)-1-{2-[(2-oxopyrrolidin-1-yl)-methyl]quinolin-4-yl}ethyl]benzamide]
IC50: 7220 nM

Cc1ccccc1C(=O)NC(C)c1cc(CCn2cccn2)nc2ccccc12 (stereo in doubt) [Example 157, 2-methyl-N-[(1R)-1-{2-[2-(1H-pyrazol-1-yl)ethyl]-quinolin-4-yl}ethyl]benzamide]
IC50: 2680 nM

Cc1ccccc1C(=O)NC(C)c1cc(CN)nc2ccccc12 (stereo in doubt) [Example 158, N-{(1R)-1-[2-(aminomethyl)quinolin-4-yl]-ethyl}-2-methylbenzamide]
IC50: 5480 nM

Cc1ccccc1C(=O)NC(C)c1cc(CC#N)nc2ccccc12 (stereo in doubt) [Example 159, N-{(1R)-1-[2-(cyanomethyl)quinolin-4-yl]-ethyl}-2-methylbenzamide]
IC50: 1970 nM

Cc1ccc(C(N)=O)cc1C(=O)NC(C)c1cc(-n2ccnn2)cc2ccccc12 (stereo not drawn) [Example 1, N^1-(1-(3-(1H-1,2,3-triazol-1-yl)naphthalen-1-yl)ethyl)-6-methylisophthalamide]
IC50: 1790 nM

Cc1ccc(C(N)=O)cc1C(=O)NC(C)c1cc(-n2nccn2)cc2ccccc12 (stereo not drawn) [Example 2, N^1-(1-(3-(2H-1,2,3-triazol-2-yl)naphthalen-1-yl)ethyl)-6-methylisophthalamide]
IC50: 1370 nM
